± gives the expanded uncertainty stated by the source.
Columns and labels:
[1] = wn = mass fraction of the nth substance listed; details: 101.33 kPa, Liquid, w1 = 0.009; for viscosity: Capillary tube (Ostwald / Ubbelohde) method; for mass density: Vibrating tube method
[2] = 101.33 kPa, Liquid; for viscosity: Capillary tube (Ostwald / Ubbelohde) method; for mass density: Vibrating tube method
[3] = mn = molality of the nth substance listed, in mol/kg; details: 101.33 kPa, Liquid, m2 = 0; for viscosity: Capillary tube (Ostwald / Ubbelohde) method; for mass density: Vibrating tube method

[Cl-].[Na+] [sodium chloride] + O
[1]
Details | mass density [kg/m3] | viscosity [mPa·s]
278.15 K | 1006.09 ± 0.21 | 1.53 ± 0.032
283.15 K | 1005.64 ± 0.21 | 1.321 ± 0.028
288.15 K | 1005.07 ± 0.21 | 1.154 ± 0.024
293.15 K | 1004.14 ± 0.21 | 1.015 ± 0.021
298.15 K | 1002.96 ± 0.21 | 0.9068 ± 0.019
303.15 K | 1001.47 ± 0.21 | 0.8105 ± 0.017
308.15 K | 999.75 ± 0.21 | 0.7363 ± 0.015
313.15 K | 997.82 ± 0.21 | 0.6641 ± 0.014

O [water]
[2]
Details | mass density [kg/m3] | viscosity [mPa·s]
278.15 K | 999.96 ± 0.2 | 1.521 ± 0.032
283.15 K | 999.7 ± 0.2 | 1.307 ± 0.027
288.15 K | – | 1.135 ± 0.024
293.15 K | – | 1.002 ± 0.021
298.15 K | – | 0.8903 ± 0.019
303.15 K | – | 0.7977 ± 0.017
308.15 K | – | 0.719 ± 0.015
313.15 K | – | 0.6532 ± 0.014

O [water] + CO/N=C(\C(=O)N[C@@H]1C(=O)N2C(C(=O)O)=C(C[N+]3(C)CCCC3)CS[C@H]12)c1csc(N)n1.Cl.[Cl-]
[3]
Details | mass density [kg/m3] | viscosity [mPa·s]
278.15 K | 999.96 ± 0.21 | 1.521 ± 0.032
283.15 K | 999.7 ± 0.21 | 1.307 ± 0.027
288.15 K | – | 1.135 ± 0.024
293.15 K | – | 1.002 ± 0.021
298.15 K | – | 0.8903 ± 0.019
303.15 K | – | 0.7977 ± 0.017
308.15 K | – | 0.719 ± 0.015
313.15 K | – | 0.6532 ± 0.014
